# Measured values reported in US10137099B2, “Activation of AMP-protein activated kinase by oxaloacetate compounds” (priority 2010, dated 2018).
# Where two headings read alike, the source gives them in different places.
# Tests used:
# [1] = 21 diabetic patients, cited from earlier work
# [2] = Stability and shelf life of oxaloacetic acid forms; details: for stability / shelf life at room temperature: kept dry, reduced water content
# From the text: (§1) The keto-oxaloacetate decarboxylates quickly to pyruvate. As the keto-oxaloacetate form disappears due to decarboxylation, the enol and hydrated form convert to keto-oxaloacetate, and then also decarboxylate into carbon dioxide and pyruvate, until all the oxaloacetate is consumed. Note that neither of the byproducts of oxaloacetate decarboxylation, carbon dioxide and pyruvate, are effective in activating AMPK.
# (§2) The keto-oxaloacetate decarboxylates quickly, followed by enol conversion to keto form and further decarboxylation. […] Na-OAA has no shelf life, and is not available commercially.
# There is an energy gap between the enol and keto form which is bridged when the compounds are exposed to water, however, this same energy gap prevents the conversion of the enol to keto form when the product is kept dry. Once there is a conversion to the keto form, decarboxylation can spontaneously occur at temperatures above the freezing point of water. […] Drying effectiveness can be increased by increasing the drying time, drying under vacuum, by using anhydrous washes of isopropyl alcohol or ethyl alcohol to absorb the remaining water (and then evaporating the alcohol), or by performing multiple washes with hexane or non-water soluble solvent to physically remove the water, typically after an alcohol wash. The non-water soluble solvent would then be evaporated off. […] Hexane is a residual solvent in many commercial food preparations including decaffeinated coffee, and is not toxic in small quantities. Alternatively, the final wash can be performed with liquefied propane, liquefied butane, ethyl acetate, ethane, carbon dioxide, or nitrous oxide to reduce the water content.
# Biochem., vol. 26, pp. 418-421, 1950, also in Heidelberger; “The Synthesis of Oxalacetic Acid-1-C14 and Orotic Acid-6-C14”, Biochem. Prepn. 3, 59 (1953) pp 4704-4706.
# in vivo = details: rat
# From the text: (§3) I have investigated the toxicity of OAA in an acute study and two chronic studies.
# (§4) The dose ratio between toxic and therapeutic effects is the therapeutic index and it can be expressed as the ratio LD50/ED50.
# older mice = assay: Chronic eighteen-month study in older mice; assay type: in vivo; details: 380 mg OAA/kg of mouse, eighteen months
# [3] = Removal of orally consumed oxaloacetic acid from blood stream into cells; assay type: in vivo, human
# Method: The oxaloacetic acid is converted to the ionic form oxaloactate in the digestive tract, and is then absorbed into the body and is distributed throughout the body via the bloodstream. […] At time 0, the amount detected was 0 ug/100 ml blood, at time 30 minutes 0 ug/100 ml blood, and at time 60 minutes ranged from […] blood. […] Within the cells the oxaloacetate reacts into L-malate as it encounters the enzyme malate dehydrogenase (MDH). MDH is ubiquitous in human cells, and the conversion of oxaloacetate to malate is very energetically favorable (the Gibbs Free Energy, delta G, is highly negative (−29.7) indicating the reaction is very favorable to proceed). As oxaloacetate is converted to malate, NADH is converted to NAD+. The resulting increase in the NAD+/NADH ratio leads to the phosphorylation (activation) of AMPK (Rafaeloff-Phail R, Ding L, Conner L, et al. “Biochemical regulation of mammalian AMP-activated protein Kinase activity by NAD and NADH”. J Biol Chem 2004; 279: 52934-9). AMPK serves to stimulate glucose uptake into the skeltal tissues and thereby reduces glucose levels. The immediate reduction is best seen with a glucose tolerance test in individuals that have defective leptin signaling (including overweight and obese persons) that are fasting. […]
# C. elegans = C. elegans lifespan with functional and non-functional AMPK; assay type: in vivo, Caenorhabditis elegans; details: for lifespan of worms with non-functional alpha AMPK subunit: dysfunctional aak-2 subunit; for lifespan of worms with non-functional alpha AMPK subunit / increase of lifespan: 8 mM oxaloacetate; for increase of lifespan: worms with functional FOXO/DAF-16 and AMPK, p<0.001
# Method: I have assayed the CR mimetic OAA for AMPK activation by using the worm C. elegans containing a non-functional alpha AMPK subunit, and have compared lifespan with and without the functional AMPK subunit. […] Graph 1 is the Kaplan-Meyer survival curves for worms with functional and non-functional AMPK showing the difference in lifespan.
# AMPK activation is necessary to increase lifespan of C. elegans when exposed to 8 mM concentrations of oxaloacetate. The increase in lifespan averages approximately 25%, p<0.001.
# [4] = system: human A549 lung cancer tissue; details: uM levels, contact solution of 76 uM; not within normal tissue; cancer tissue unable to reproduce for six weeks; cited from earlier work
# [5] = Glucose related effects of supplementation in humans; assay type: in vivo, human; details: non-diabetic patients
# From the text: Glucose related effects in humans have measured an 8 to 10% drop in fasting glucose levels in non-diabetic patients, a drop in triglyceride levels by 10% and a 55% reduction in the amplitude of fasting blood glucose levels.
# [6] = Blood-brain barrier penetration
# From the text: AMPK activation has been associated with reduced Alzheimer risk and potentially with Alzheimer's treatment (Richter, Erik and Ruderman, Neil, “AMPK and the biochemistry of exercise: implications for human health and disease” Biochem. J. (2009) 418, 261-275). Thus OAA may be used for reducing the risk of Alzheimer's disease and for treatment of the same.
# [7] = Hydrated/keto/enol composition in water; assay type: physicochemical; details: pH 6.9 (oxaloacetic acid), Na-OAA dissolved in water
# From the text: The oxaloacetate can be in three forms depending on the pH of the solution. At low pH (<1.5) and low temperature (<4 degrees C.) oxaloacetate hydrates. […] The hydrated form is mostly converted once it enters the higher pH of the body outside of the intestinal tract to the keto and enol form. […] Enol-oxaloacetate is convert to keto-oxaloacetate with the enzyme enol-keto tautomerase, a ubiquitous enzyme throughout the human body.
# as §1, §2
# mouse = system: mouse
# From the text: as §3, §4
# rats = details: cited from earlier work
# ob/ob and db/db mice = details: 8 day administration; cited from earlier work
# [8] = Example 5: blood pressure in patient with hypertension; assay type: in vivo, human; details: 100 mg daily for three months
# From the text: A patient is diagnosed with hypertension. […] The patient's blood pressure decreases by 10%.
# [9] = Example 1: non-diabetic subject, blood panel after 6 months; assay type: in vivo, human
# Method: A non-diabetic subject is given 100 mg anhydrous enol-oxaloacetic acid in solid form for a period of 6 months to reduce blood triglycerides and glucose levels. AMPK is activated and the treatment is effective.
# [10] = Example 4: maintenance of weight loss after diet; assay type: in vivo, human; details: 100 mg daily
# From the text: A patient successfully loses 24 pounds.
# [11] = Example 2: fasting blood glucose tracked for several weeks; assay type: in vivo, human; details: 100 mg daily
# From the text: The amplitude of the patient's swings in fasting glucose decrease by 55% due to improved glucose homeostasis. AMPK is activated and overall fasting glucose levels drop by 8%. The data is shown in Graph 3.
# [12] = Example 3: body weight of obese patient over three months; assay type: in vivo, human
# From the text: AMPK is activated and the patient drops in weight from 258 to 234 pounds in a three month period. The patient is no longer obese.
# [13] = Decrease (Improvement), February to August 2007
compound,measurement,setting,value
O=C(O)CC(=O)C(=O)O [oxaloacetic acid],side effects,"[1]; 100 mg to 1,000 mg (2-10 mg/kg)",no negative side effects
same,blood glucose levels,"[1]; 100 mg to 1,000 mg",dropped significantly in all patents
same,patients in whom urine glucose levels dropped,"[1]; 100 mg to 1,000 mg",19 out of the 21
same,time to decarboxylation,[2]; divalent cations in the fluid,within a day
same,NOAEL at 90 days,in vivo,500 mg/kg
same,lived longer than the control group,older mice,25%
same,time until most is moved from the blood stream into individual cells,[3],≤ 120 min
same,lifespan of worms with non-functional alpha AMPK subunit,C. elegans,no increase in lifespan
same,lifespan of worms with non-functional alpha AMPK subunit,C. elegans; listed as OAA,will not increase the lifespan
same,lifespan of wild type worms subjected to calorie restriction,"C. elegans; functional AMPK, calorie restriction plus OAA supplementation",do not have their lifespan increased
same,increase of lifespan,C. elegans,approximately 25%
same,increase of lifespan,C. elegans; listed as OAA,25%
same,effect on cancer tissue,[4],differential massive debris within the cancer tissue
same,drop in triglyceride levels,[5],10%
same,reduction in the amplitude of fasting blood glucose levels,[5],55%
same,blood-brain barrier penetration,[6],can penetrate the blood-brain barrier
same,fraction in the enol form,[7],11%
same,fraction in the hydrated form,[7],5%
same,fraction in the keto form,[7],84%
same,LD50,"mouse; acute study, taken with food","more than 5,000 mg OAA/Kg of mouse"
same,LD50,"mouse; mouse, in vivo",above 5 g/kg of body weight
same,pancreas findings at 41 mg/kg of body weight,rats; 41 mg/kg,proliferation and hyperplasia of the islet cells
same,pancreas findings at 83 mg/kg of body weight,rats; 83 mg/kg,caused changes in pancreatic islets
"NC(=O)c1ncn([C@@H]2O[C@H](CO)[C@@H](O)[C@H]2O)c1N [AICAR, 5-Aminoimidazole-4-darboxamide ribonucleoside]",reduction of blood glucose,ob/ob and db/db mice,35%
O=C(O)CC(O)(O)C(=O)O [hydrated form of oxaloacetic acid],shelf life,[2],no shelf life
same,time of stability,[2],less than one-week's time
O=C([O-])CC(=O)C(=O)O.[Na+] [sodium oxaloacetate],shelf life,[2],no shelf life
same,fraction in the enol form,[7],11%
same,fraction in the hydrated form,[7],5%
same,fraction in the keto form,[7],84%
O=C(O)CC(=O)C(=O)O [anhydrous enol-oxaloacetic acid],stability / shelf life at room temperature,[2],exceeding one year
same,stability / shelf life at room temperature,[2]; listed as reduced water content oxaloacetate form,exceed one year
same,product decay,"[2]; room temperatures, shelf life exceeding one year",less than 1%
same,decrease of blood pressure,[8],10%
same,"Glucose Fasting, August 2007","[9]; 100 mg daily for 6 months, February 2007 baseline 97",89 mg/dL
same,Glucose Fasting % Change,[9]; [13],8.25%
same,Triglyceride % Change,[9]; [13],8.93%
same,"Creatinine, August 2007","[9]; after 6 months, baseline 1",0.9 mg/dL
same,"TSH, August 2007","[9]; after 6 months, baseline 1.41",1.32 uIU/ml
same,"Albumin, August 2007","[9]; after 6 months, baseline 4.4",4.2 g/dL
same,"K (Potassium), August 2007","[9]; after 6 months, baseline 4.6",4.5 mEq/L
same,"Bun-Ser, August 2007","[9]; after 6 months, baseline 14",12 mg/dL
same,"AST (SGOT), August 2007","[9]; after 6 months, baseline 16",15 IU/L
same,"Lipase, August 2007","[9]; after 6 months, baseline 17",19 u/l
same,"CO2 (Carbon Dioxide), August 2007","[9]; after 6 months, baseline 27",29 mEq/L
same,"ALK P'TASE, August 2007","[9]; after 6 months, baseline 36",37 IU/L
same,"HDL Ser Cholesterol, August 2007","[9]; after 6 months, baseline 42",42 mg/dL
same,"Cl (Chloride), August 2007","[9]; after 6 months, baseline 110",108 mEq/L
same,"Triglyceride, August 2007","[9]; after 6 months, baseline 112",102 mg/dL
same,"LDL Cholesterol, August 2007","[9]; after 6 months, baseline 138",138 mg/dL
same,"Na (Sodium), August 2007","[9]; after 6 months, baseline 144",143 mEq/L
same,"Total Cholesterol, August 2007","[9]; after 6 months, baseline 202",203 mg/dL
same,"liver genes Acaa1, Cnbp, Fasn, Idil, Ndufabl, Pcx, Sc5d (human homologues)",[10],down regulates
same,regain of weight lost,"[10]; one-year period after the diet, 24 pounds lost",does not regain the weight lost
same,decrease of amplitude of swings in fasting glucose,[11],55%
same,drop of overall fasting glucose levels,[11],8%
same,Ending Weight May 2007,"[12]; 100 mg daily, three month period, starting weight 258",234 pounds
same,Percent Reduction of weight,[12]; February 2007 to May 2007,9.3%
